Measurements as given in patent US8980881B2, “Crystalline forms of (R)-8-chloro-1-methyl-2,3,4,5-tetrahydro-1H-3-benzazepine hydrochloride” (priority 2004, dated 2015).
“Also recorded” adds a separate entry of the source. Structures can show the parent of a compound that is named as a salt.

Columns and labels:
[1] = Heat stability of crystalline form, XRPD analysis after heating; type: physicochemical
Procedure: A sample of Form I was heated to 160° C. in a TGA furnace for about 15 min when heated at a rate of about 10° C./min.
A sample of Form III was heated to 60° C. for at least 2 hours.
A sample of Form III was heated to 60° C. for one day.
A sample of Form III was heated to 80° C. for 30 minutes.
A sample of Form III was heated to 80° C. for 1 day.

[2] = Dynamic vapor sorption (DVS) scan, with XRPD after the cycle; type: physicochemical; details: for crystalline form after DVS cycle: XRPD after the DVS cycle; for moisture adsorbed: between about 40 and about 80% RH, calculated from DVS; for DVS: adsorbs (moisture) / DVS: adsorption transition at / DVS: deliquescent above / DVS: hygroscopicity: dynamic vapor sorption
From the text: FIG. 4 depicts a dynamic vapor sorption (DVS) scan for crystalline Form I of the invention (VTI dynamic vapor desorption analyzer).
FIG. 8 depicts a dynamic vapor sorption (DVS) scan for crystalline Form II of the invention (VTI dynamic vapor desorption analyzer).
FIG. 12 depicts a dynamic vapor sorption (DVS) scan for crystalline Form III of the invention.
The various crystalline forms of (R)-8-chloro-1-methyl-2,3,4,5-tetrahydro-1H-3-benzazepine hydrochloride can be identified by their unique solid state signatures with respect to, for example, differential scanning calorimetry (DSC), X-ray powder diffraction (XRPD), and other solid state methods. Further characterization with respect to water or solvent content of the crystalline forms can be gauged by any of various routine methods such as thermogravimetric analysis (TGA), dynamic vapor sorption (DVS), DSC and other techniques. For DSC, it is known that the temperatures observed will depend upon the rate of temperature change as well as sample preparation technique and the particular instrument employed. Thus, the values reported herein relating to DSC thermograms can vary by plus or minus about 4° C. For XRPD, the relative intensities of the peaks can vary, depending upon the sample preparation technique, the sample mounting procedure and the particular instrument employed. Moreover, instrument variation and other factors can often affect the 2-theta values. Therefore, the peak assignments of diffraction patterns can vary by plus or minus about 0.2°.
XRPD carried out on both Forms I and II after the DVS cycle confirmed this conversion.

SMILES | crystal form after heating (XRPD) ([1]; heated to 160° C. in a TGA furnace for about 15 min, about 10° C./min) | crystalline form after DVS cycle ([2]; hydrochloride) | moisture adsorbed [2] | DVS: adsorbs (moisture) [2] | DVS: adsorption transition at ([2]; hydrochloride) | DVS: deliquescent above ([2]; hydrochloride) | DVS: hygroscopicity ([2]; hydrochloride) | conversion upon exposure to moisture [2] | crystal form after heating (XRPD) ([1]; heated to 60° C. for at least 2 hours) | crystal form after heating (XRPD) ([1]; heated to 60° C. for one day) | crystal form after heating (XRPD) ([1]; heated to 80° C. for 30 minutes) | crystal form after heating (XRPD) ([1]; heated to 80° C. for 1 day) | crystalline form after DVS cycle ([2]; hydrochloride Hemihydrate) | DVS: adsorption at 90% RH ([2]; at 90% RH) | water adsorbed ([2]; at 90% RH) | DVS: deliquescent above ([2]; hydrochloride Hemihydrate) | DVS: hygroscopicity ([2]; hydrochloride Hemihydrate)
C[C@H]1CNCCc2ccc(Cl)cc21 [Form I, (R)-8-chloro-1-methyl-2,3,4,5-tetrahydro-1H-3-benzazepine hydrochloride] | no change in crystal form | conversion to the hemihydrate (Form III); also recorded: crystalline form changes | about 3.8 wt % | adsorbs about 3.8 wt %; | about 60% RH; | deliquescent above 90% RH | hygroscopic; also recorded: hygroscopic; | readily convert to Form III |  |  |  |  |  |  |  |  | 
C[C@H]1CNCCc2ccc(Cl)cc21 [Form II, (R)-8-chloro-1-methyl-2,3,4,5-tetrahydro-1H-3-benzazepine hydrochloride] |  | conversion to the hemihydrate (Form III); also recorded: crystalline form changes | about 3.8 wt % | adsorbs about 3.8 wt %; | about 40% RH; | deliquescent above 90% RH | hygroscopic; also recorded: hygroscopic; | readily convert to Form III |  |  |  |  |  |  |  |  | 
C[C@H]1CNCCc2ccc(Cl)cc21 [Form III, (R)-8-chloro-1-methyl-2,3,4,5-tetrahydro-1H-3-benzazepine hydrochloride Hemihydrate] |  |  |  |  |  |  |  |  | substantially no change in crystal form | partial conversion to Form I | partial conversion to Form I | partial conversion to Form I | no change in crystalline form | adsorption of less than 0.5% | less than 0.5 wt % | deliquescent above 95% RH; | substantially non-hygroscopic
